Settings: mouse, in vivo
Description: The mice were slaughtered 3 hours after injection (each group consisted of 3 mice). The materials of liver, kidney, spleen, lungs, small intestines, tumor, surrounding muscle tissue as well as from blood, urine, faeces from large intestine weighing 100 mg each were thoroughly homogenised in glass homogenizers supplementing 4 ml of saline solution. For examination of biological fluids (blood, urine) 0,1 ml of each fluid were taken with subsequent dissolution in 4 ml of saline solution. The resulting homogenates were studied on “Perkin-Elmer” spectrofluorimeter (MPF-44A model).

time interval of tumour accumulation optimal for photodynamic effect according to selectivity: 3 to 18 h
Substance: 13-carboxy-17-[2-carboxyethyl]-15-formyl-17,18-trans-dihydro-3-vinyl-8-ethyl-2,7,12,18-tetramethylporphyrin [purpurin 5]

Reference: patent publication US7550587B2, “Photosensitizer and method for production thereof” (priority 2001, dated 2009)
